Literature values, collected in patent publication US20200397756A1, “A STABLE PHARMACEUTICAL COMPOSITION OF POORLY SOLUBLE NONSTEROIDAL ANTIANDROGENS” (KASHIV BIOSCIENCES, LLC, priority 2018, published 2020).

Legend:
[1] = water between pH 1 to 11
[2] = not given; remark: listed apart in the source

Compound | solubility in absolute ethanol | solubility in water [1] | permeability [2]
CNC(=O)c1ccc(N2C(=S)N(c3cnc(C#N)c(C(F)(F)F)c3)C(=O)C23CCC3)cc1F [apalutamide, 4-(7-(6-Cyano-5-(trifluoromethyl)pyridin-3-yl)-8-oxo-6-thioxo-5,7-diazaspiro(3.4)octan-5-yl)-2-fluoro-N-methylbenzamide] | sparingly soluble | practically insoluble | high
CNC(=O)c1ccc(N2C(=S)N(c3ccc(C#N)c(C(F)(F)F)c3)C(=O)C2(C)C)cc1F [Enzalutamide, 4-{3-[4-cyano-3-(trifluoromethyl)phenyl]-5,5-dimethyl-4-oxo-2-sulfanylideneimidazolidin-1-yl}-2-fluoro-N-methylbenzamide] | sparingly soluble | practically insoluble | high
